Results published in patent publication US11078462B2, “Perivascular stromal cells from primate pluripotent stem cells” (ReCyte Therapeutics, Inc., priority 2014, dated 2021).
Counter-ions that a name gives are not always drawn.

Test system: HUVEC+017-PC-M co-cultures
Assay: Kit co-culture assay to study angiogenesis in vitro (tube formation on MATRIGEL)
Type: cell-based, human
Experimental: A kit has been developed to provide a unique, robust co-culture assay to study angiogenesis in vitro. In this model system, we utilize a unique perivascular stromal cell line (017-PC-M) that when co-cultured with human umbilical vein endothelial cells (HUVEC) results in the rapid formation of large angiogenic networks with long-term stability of 4-6 days without the need for additional growth factors and complex media supplements.
VASCULIFE® assay media: VASCULIFE® basal media plus 10 mM L-glutamine (final concentration)
Assay Protocol: • 1. Four days (Day −4) prior to assay, HUVECs should be thawed and seeded at 3.5×10^4 cells per cm^2 into a 150 cm^2 tissue culture flask containing VASCULIFE® growth media. Incubate cells at 37° C. and 5% CO2. Exchange full volume of media every 1-2 days. • 2. Two days (Day −2) prior to assay, PC-M cells should be thawed and seeded at 10×10^4 cells per cm^2 into a 150 cm^2 tissue culture flask containing VASCULIFE® growth media. Incubate cells at 37° C. and 5% CO2. Exchange full volume of media every 1-2 days. • 3. At Day 0, prepare 96-well plate with MATRIGEL® coating of 50 μL per well. Let plate warm for at least 1 hour prior to seeding cells. • 4. Prepare assay solution: dilute L-glutamine into VASCULIFE® medium. • 5. On Day 0, harvest both HUVECs and PC-M cells. Recommended: Use 5-7.5 mL ACCUTASE® treatment for 3-5 minutes to detach cells, then quench Accutase® with an equivolume of Vasculife® growth media before pelleting cells. • 6. Prepare VASCULIFE® assay media (500 μL per each triplicate condition). • 7. Pellet cells at 250-350 rpm for 5 minutes at room temperature. • 8. Decant media and re-suspend into 1 mL of VASCULIFE® assay media. • 9. Measure cell concentration and viability:
• 10. Mix cells at a ratio of 3:1 HUVECs: 017-PC-M cells and seed at a final density of 37,500 cells per well. For one set of triplicates, mix approximately 85,000 HUVECs with 28,000 017-PC-M cells. • 11. Allow co-culture to adhere at 37° C. for 3-4 hours. • 12. […]

For VEGF, the “formation of tubes after addition of VEGF to the assay media” value (VEGF concentrations ≤2.5 ng/mL or ≥10 ng/mL, monocultures and/or co-cultures) was “may inhibit formation of tubes”.

In the case of `Cc1ccc(C(=O)Nc2ccc(S(=O)(=O)O)c3cc(S(=O)(=O)O)cc(S(=O)(=O)O)c23)cc1NC(=O)c1cccc(NC(=O)Nc2cccc(C(=O)Nc3cc(C(=O)Nc4ccc(S(=O)(=O)O)c5cc(S(=O)(=O)O)cc(S(=O)(=O)O)c45)ccc3C)c2)c1` [Suramin, suramin hexasodium salt], the reduce tube formation (Addition of 50 μM Suramin) is reported as > 90%.

“basic FGF: basic fibroblast growth factor added to the assay media” was tested, and the “tube formation after addition of basic FGF to the assay media” value (concentrations ≥10 ng/mL, monocultures of HUVECs, of 017-PC-M cells and/or co-cultures) was “little to no tube formation”.
